Experimental data: PubChem BioAssay (NCI)
Several values for one entry are separate records, joined by “and”; a condition that tells them apart may be missing. Equal entries are not always repeated.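 Five compound concentrations were applied to cells in 96-well plates for 48 hours; endpoints were derived by simple linear interpolation of the resulting dose-response curve. GI50: concentration for 50% inhibition of growth. Definition used: TGI = concentration required for complete inhibition of growth.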

What was measured:
Assay in all cases: NCI anticancer screen, dose series, 48 h
[1] = tested on: A549 NSCLC
[2] = tested on: CAKI-1 renal
[3] = tested on: M14 melanoma
[4] = tested on: NCI-H460 lung
[5] = tested on: RPMI-8226 leukemia
[6] = tested on: SK-MEL-2 melanoma
[7] = tested on: SK-MEL-5 melanoma
[8] = tested on: SN12C renal
[9] = tested on: U251 CNS
[10] = tested on: MDA-MB-435

Row | Compound | TGI [1] | TGI [2] | TGI [3] | TGI [4] | TGI [5] | TGI [6] | TGI [7] | TGI [8] | TGI [9] | GI50 [1] | GI50 [2] | GI50 [5] | TGI [10]
1 | N#C/C(=C\c1ccccc1Br)C(=O)c1ccccc1 | > 70 µM | > 100 µM | > 68.1 µM | > 100 µM | 51.6 µM | > 100 µM | 34.6 µM | > 76.6 µM | > 71.4 µM |  |  |  | 
2 | CCCCCCCCCCSCC(CO)NC(=O)/C=C/c1c(C)[nH]c(=O)[nH]c1=O (stereo not drawn) | > 50 µM | 8.25 µM and > 50 µM |  | 18.2 µM and 49.5 µM | > 50 µM | 14.3 µM and 5.19 µM | 8.06 µM and 13.1 µM | 17.7 µM and > 32.8 µM | 3.7 µM and 10.7 µM | > 44.4 µM | 1.01 µM and 3.68 µM | 19.7 µM | 
3 | CC(=O)CC(=O)/C=C/c1cccs1 | > 100 µM | > 100 µM | > 100 µM | > 100 µM | > 100 µM | > 100 µM | > 100 µM | > 100 µM | > 100 µM |  |  |  | 
4 | CC(=O)O[C@H]1CC[C@H]2[C@@H]3CCC(C(C)=O)[C@H](C(=O)O)[C@H]3CC[C@]12C (stereo partly drawn) | > 100 µM | > 100 µM | > 100 µM | > 100 µM | > 100 µM | > 100 µM | > 100 µM |  | > 100 µM |  |  |  | > 100 µM
5 | C#CCOC(=O)C(N)CCSC (stereo not drawn) | > 100 µM | > 100 µM | > 100 µM |  | > 100 µM | > 100 µM | > 100 µM | > 100 µM | > 100 µM |  |  |  | > 100 µM
6 | CN(CCO)/N=N/c1[nH]ncc1C(N)=O | > 100 µM | > 100 µM |  | > 100 µM | > 100 µM | > 100 µM | > 100 µM | > 100 µM | > 100 µM |  |  |  | 
7 | COc1ccccc1N=C1SCCN1C(=S)Nc1ccc(S(=O)(=O)/N=C/N(C)C)cc1 | > 100 µM | > 100 µM | > 100 µM | > 100 µM | 68.4 µM |  | 37 µM | > 100 µM | > 100 µM |  |  |  | 76.9 µM
8 | Cc1cc(C)c(N=Nc2c(O)c(S(=O)(=O)O)cc3cc(S(=O)(=O)O)ccc23)cc1C | > 100 µM | > 100 µM | > 100 µM |  | > 100 µM | > 100 µM | > 100 µM | > 100 µM | > 100 µM |  |  |  | > 100 µM
9 | O=[N+]([O-])c1cc(Cl)ccc1S(=O)(=O)N1CCCc2cc(Cl)ccc21 | > 100 µM | > 100 µM | > 100 µM | > 100 µM | > 100 µM | > 100 µM | > 100 µM | > 100 µM |  |  |  |  | > 100 µM
10 | CC1=CC(=O)/C(=C/n2c(=S)[nH]c3ccccc32)C(=O)O1 | > 100 µM | > 100 µM | > 100 µM | > 100 µM | > 100 µM | > 100 µM |  | > 100 µM | > 100 µM |  |  |  | > 100 µM
11 | O=C1C[C@H](c2ccc(O)c(O)c2)Oc2cc(O)cc(O)c21 | > 100 µM | > 100 µM | > 100 µM | > 100 µM | > 100 µM | > 100 µM | > 100 µM | > 100 µM | > 100 µM |  |  |  | 
12 | N=C(c1cccs1)C1(N2CCCCC2)CCCCC1 | 60.2 µM | 32.9 µM | 47.4 µM | 30 µM | 33.8 µM | 31.3 µM |  | 88.6 µM | 30 µM |  |  |  | 37.8 µM
13 | COc1ccc(C2C(Cl)C(=O)N2NC(=O)Cc2ccccc2)cc1OC (stereo not drawn) | > 100 µM | > 100 µM | > 100 µM | > 100 µM | > 100 µM | > 100 µM | > 100 µM | > 100 µM | > 100 µM |  |  |  | 
14 | C=CCC(SC)C1=C(C)C(=O)c2ccccc21 (stereo not drawn) | > 10 µM |  | > 10 µM | > 10 µM | > 10 µM | > 10 µM | > 10 µM | > 10 µM | > 10 µM |  |  |  | > 10 µM
15 | CSC1=C(C(=O)Nc2ccccc2)C(N)=NC1=O | > 100 µM | > 100 µM |  | > 100 µM | > 100 µM | > 100 µM | > 100 µM | > 100 µM | > 100 µM |  |  |  | > 100 µM
16 | C=CC1(c2ccc(OC)cc2)OCCCO1 | > 100 µM |  | > 100 µM | > 100 µM | > 100 µM | > 100 µM | > 100 µM | > 100 µM | > 100 µM |  |  |  | > 100 µM
17 | COc1cccc(-c2cc(=O)c3cc(Cl)cnc3[nH]2)c1 | 31.6 µM | 71.8 µM | > 9.71 µM | > 100 µM | > 62.1 µM | 98.2 µM | 7.33 µM | > 100 µM | 23.5 µM |  |  |  | 
18 | O=S(=O)(/N=C(\NO)Nc1ccc(Cl)cc1)c1ccc(-c2ccccn2)s1 | > 100 µM | 66 µM | > 100 µM | > 100 µM |  | > 100 µM | > 100 µM | 72.9 µM | > 100 µM |  |  |  | > 100 µM
19 | c1ccc(C2[C@@H]3CCCc4ccccc4C3=NN2c2ccccc2)cc1 (stereo partly drawn) | > 100 µM |  |  | > 100 µM | > 100 µM |  | 47.1 µM | > 100 µM | > 100 µM |  |  |  | 
20 | CCN(CC)CCNc1ccc2ncn3c4cc(=O)ccc4c(O)c1c23 | 12.1 µM | 13.4 µM | 14.4 µM | 9.61 µM | 9.97 µM | 21.7 µM | 12.1 µM | 15.7 µM | 6.59 µM |  |  |  | 
21 | COc1ccc(N2C(=O)C3CC4=CC(=O)C[C@H]4[C@H]32)cc1 (stereo partly drawn) | > 100 µM | 87.6 µM | > 100 µM | > 100 µM | > 100 µM | > 100 µM |  | > 100 µM | > 100 µM |  |  |  | > 100 µM
22 | Cc1sc2nc3n(c(=O)c2c1C)N=C(c1ccc([N+](=O)[O-])cc1)CS3 | > 100 µM | > 100 µM |  | > 100 µM | > 100 µM |  | > 100 µM | > 100 µM | > 100 µM |  |  |  | > 100 µM
23 | CCN(CC)CCC(=O)c1ccc(Oc2ccc(F)cc2)cc1 | > 100 µM | 30.9 µM | 34.9 µM |  | 56.4 µM | > 100 µM |  | 32.1 µM | 31.1 µM |  |  |  | 32.3 µM
